This is an account of results in PubChem BioAssay (NCI).

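Exposure lasted 48 hours, with cells grown in 96-well plates and compounds tested at five concentrations. TGI: concentration producing complete growth inhibition.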

In one assay the test system is BT-549 breast. Description: DTP human tumour cell line panel, 48 h.
One may read the TGI as the concentration giving total growth inhibition. High values mean less potent growth arrest, low ones more potent growth arrest. In the case of `Cc1cc2c(c(C(=O)NCCC(=O)O)c1)Oc1c(cc(C)cc1C(=O)NCCC(=O)O)S2`, the TGI was over 100 µM.

As to `CCN(CC)CCn1c2cc3c(cc2c(=O)c2cccnc21)OCCO3`, the TGI is over 10 µM.

A further assay deals with DU-145 prostate. Description: DTP human tumour cell line panel, 48 h.
`Cc1ccc2c(c1)nc(N)n[n+]2[O-]` showed a TGI of over 100 µM.

In turn, `Cc1cn(C2CC(N)C(CN)O2)c(=O)[nH]c1=O` (stereo not given) gave a TGI of over 100 µM.

In turn, `Nc1nc2ncc(SCc3ccc(C(=O)NC(CCC(=O)O)C(=O)O)cc3)cc2c(=O)[nH]1` (stereo not given) registered a concentration for total growth inhibition (TGI) of over 100 µM.

`COc1ccc2c(c1)c1c(n2CCN2CCOCC2)-c2ccccc2CC1` returned a TGI of over 100 µM.

The molecule `CCOC(=O)c1cc(C2(O)CCN(Cc3ccccc3)C2=O)c(-c2cc(C)no2)[nH]1` (stereo not given) had a TGI of over 100 µM.

`Clc1nc(Cl)nc(NC23CC4CC(CC(C4)C2)C3)n1` showed a TGI of 31.3 µM.

Take `CCOC(=O)c1cc(=C2\CCN(CC(C)CC)C2=S)/c(=C(/O)CC)[nH]1` (stereo not given): the TGI worked out at 30.2 µM. The TGI values of the last two molecules are within 1.5-fold of each other.

With `OCC1CCCC(n2cnc3c(=S)nc[nH]c32)O1` (stereo not given), the TGI is over 100 µM.

Take `COc1cc2oc(-c3ccc(O)cc3)c(OC3OC(C)C(O)C(O)C3O)c(=O)c2c(O)c1OC` (stereo not given): the TGI was over 100 µM.

Take `CC1(C)CC2(C)CC1CC2O` (stereo not given): the TGI was over 100 µM.

In turn, `Clc1cc(N/N=C(/c2ccccc2)c2ncccn2)ncn1` displayed a TGI of over 100 µM.

For the molecule `N#CC1=C(N)OC2=C(CSc3ccccc32)C1c1ccc(Br)cc1` (stereo not given), the TGI is over 100 µM.

For the molecule `O=C1CC(C(O)CO)CC(=O)N1` (stereo not given), the TGI was over 100 µM.

`Cc1c(Cl)ccc2c(=O)c3cccc(CC(=O)O)c3oc12` returned a TGI of over 100 µM.

The molecule `O=c1oc2ccccc2c(O)c1C(c1cc(OCc2ccccc2)cc(OCc2ccccc2)c1)c1c(O)c2ccccc2oc1=O` showed a total growth inhibition concentration (TGI) of 24.5 µM.

For the molecule `Cc1c(/C=N\NC(=S)N2CCN(C(=S)N/N=C\c3c(C)n(C)n(-c4ccccc4)c3=O)CC2)c(=O)n(-c2ccccc2)n1C`, the TGI was over 100 µM.

For the molecule `Cc1cc2c(c(C(=O)NCCC(=O)O)c1)Oc1c(cc(C)cc1C(=O)NCCC(=O)O)S2`, the TGI was over 100 µM.

`CCN(CC)CCn1c2cc3c(cc2c(=O)c2cccnc21)OCCO3` showed a concentration for total growth inhibition (TGI) of over 10 µM.

Another assay concerns HS 578T breast. The experiment in a line: DTP human tumour cell line panel, 48 h.
With `Cc1ccc2c(c1)nc(N)n[n+]2[O-]`, the TGI was over 100 µM.

In turn, `Cc1cn(C2CC(N)C(CN)O2)c(=O)[nH]c1=O` (stereo not given) had a TGI of over 100 µM.

`Nc1nc2ncc(SCc3ccc(C(=O)NC(CCC(=O)O)C(=O)O)cc3)cc2c(=O)[nH]1` (stereo not given) had a TGI of over 100 µM.

Regarding `COc1ccc2c(c1)c1c(n2CCN2CCOCC2)-c2ccccc2CC1`, the TGI amounted to 42.8 µM.

In the case of `CCOC(=O)c1cc(C2(O)CCN(Cc3ccccc3)C2=O)c(-c2cc(C)no2)[nH]1` (stereo not given), the TGI was over 100 µM.

In the case of `Clc1nc(Cl)nc(NC23CC4CC(CC(C4)C2)C3)n1`, the TGI was 28.9 µM.

Take `CCOC(=O)c1cc(=C2\CCN(CC(C)CC)C2=S)/c(=C(/O)CC)[nH]1` (stereo not given): the TGI was determined as 59.6 µM. This TGI is about 2.1-fold higher than that of the molecule before.

As for `OCC1CCCC(n2cnc3c(=S)nc[nH]c32)O1` (stereo not given), the TGI is over 100 µM.

As for `COc1cc2oc(-c3ccc(O)cc3)c(OC3OC(C)C(O)C(O)C3O)c(=O)c2c(O)c1OC` (stereo not given), the TGI is over 100 µM.

`CC1(C)CC2(C)CC1CC2O` (stereo not given): the TGI was over 100 µM.

Regarding `Clc1cc(N/N=C(/c2ccccc2)c2ncccn2)ncn1`, the TGI turned out to be 66.7 µM.

For `N#CC1=C(N)OC2=C(CSc3ccccc32)C1c1ccc(Br)cc1` (stereo not given), the TGI is over 100 µM.

With `O=C1CC(C(O)CO)CC(=O)N1` (stereo not given), the TGI was over 100 µM.

In turn, `Cc1c(Cl)ccc2c(=O)c3cccc(CC(=O)O)c3oc12` yielded a TGI of over 100 µM.

The molecule `O=c1oc2ccccc2c(O)c1C(c1cc(OCc2ccccc2)cc(OCc2ccccc2)c1)c1c(O)c2ccccc2oc1=O` had a total growth inhibition concentration (TGI) of 89.3 µM. This lies in the double-digit micromolar range.

As to `Cc1c(/C=N\NC(=S)N2CCN(C(=S)N/N=C\c3c(C)n(C)n(-c4ccccc4)c3=O)CC2)c(=O)n(-c2ccccc2)n1C`, the TGI was over 100 µM.

`Cc1cc2c(c(C(=O)NCCC(=O)O)c1)Oc1c(cc(C)cc1C(=O)NCCC(=O)O)S2` yielded a total growth inhibition concentration (TGI) of over 100 µM.

Consider `CCN(CC)CCn1c2cc3c(cc2c(=O)c2cccnc21)OCCO3`, for which the TGI was over 10 µM.

The next assay relates to MALME-3M melanoma. The experiment in a line: DTP human tumour cell line panel, 48 h.
`Cc1cn(C2CC(N)C(CN)O2)c(=O)[nH]c1=O` (stereo not given) had a TGI of over 100 µM.

Turning to `Nc1nc2ncc(SCc3ccc(C(=O)NC(CCC(=O)O)C(=O)O)cc3)cc2c(=O)[nH]1` (stereo not given), the TGI is over 100 µM.

Consider `COc1ccc2c(c1)c1c(n2CCN2CCOCC2)-c2ccccc2CC1`, for which the TGI worked out at 66.6 µM.

Consider `CCOC(=O)c1cc(C2(O)CCN(Cc3ccccc3)C2=O)c(-c2cc(C)no2)[nH]1` (stereo not given), for which the TGI was over 100 µM.

The molecule `Clc1nc(Cl)nc(NC23CC4CC(CC(C4)C2)C3)n1` registered a TGI of 30.5 µM.

Molecule `CCOC(=O)c1cc(=C2\CCN(CC(C)CC)C2=S)/c(=C(/O)CC)[nH]1` (stereo not given) returned a TGI of 23.3 µM.

`OCC1CCCC(n2cnc3c(=S)nc[nH]c32)O1` (stereo not given) came in with a concentration for total growth inhibition (TGI) of over 100 µM.

Consider `COc1cc2oc(-c3ccc(O)cc3)c(OC3OC(C)C(O)C(O)C3O)c(=O)c2c(O)c1OC` (stereo not given), for which the TGI was over 100 µM.

Molecule `CC1(C)CC2(C)CC1CC2O` (stereo not given) had a TGI of over 100 µM.

The molecule `N#CC1=C(N)OC2=C(CSc3ccccc32)C1c1ccc(Br)cc1` (stereo not given) registered a TGI of 30.7 µM. That is a double-digit micromolar value.

The molecule `O=C1CC(C(O)CO)CC(=O)N1` (stereo not given) gave a TGI of over 100 µM.

Consider `Cc1c(Cl)ccc2c(=O)c3cccc(CC(=O)O)c3oc12`, for which the TGI was over 100 µM.
